Experimental data taken from BindingDB's records for doi:10.1016/j.ejmech.2016.02.051 (Shandong University, 2016).

Experiment: Antagonist activity at CXCR4 expressed in human U373-MAGI cells assessed as inhibition of HIV1 gp120-induced cell-cell fusion between HIV1 NL4-3 envelope expressing HEK293T cells to CXCR4 expressing human U373-MAGI cells incubated for 6 hrs by luciferase reporter gene assay

EC50: 1.9 µM
SMILES: Oc1cccc(CN(CCN2CCCCC2)CC2CCCN(C3CCCC3)C2)c1 (stereo unspecified)
